Values joined by “and” are separate entries in the source; they are usually repeats but may differ in a detail not shown here. Equal entries are not always repeated. Active and inactive are the calls of the source.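 How the source made its calls: active means compounds giving half or more protection of infected cells from virus-caused growth loss, again on retest; inactive means the rest.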
Tested on: CEM cells HIV-1 protection, formazan growth assay
Experiment: NCI AIDS Antiviral Assay
Details: for IC50: measured here: growth of uninfected CEM cells
Outline: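 Protection of CEM cells against HIV-1 measured as cell growth via soluble formazan read-out, with five concentrations tested on both infected and uninfected cells; failure to protect may reflect toxicity.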

Structure (SMILES)	EC50 [µM]	IC50	outcome
O=C(Nc1ccc([N+](=O)[O-])cc1)N(c1ccccc1)c1cc(N2CCOCC2)ccn1	> 200	39.8 µM	–
Cc1ccc(S(=O)(=O)NCCCSCCSCCCN)cc1	> 257	41.7 µM	–
O=C(/C=C\c1cccc2ccccc12)c1cccs1	> 3.98	> 3.98 µM	–
O=C1NC(=O)/C(=C/c2ccc(S(=O)(=O)N/N=C\C(O)C(O)C(O)C(O)CO)cc2)N1 (stereo not given)	> 200	126 µM and > 200 µM	–
COc1ccc(C=C(Cl)Cl)cc1OC	> 200	> 200 µM	–
COc1ccc(/C=C2\C=Cc3ccccc32)cc1OC	> 200	33.9 µM	–
FC(F)(F)c1ccc(C=NC23CC4CC(CC(C4)C2)C3)cc1	> 61.7	> 61.7 µM	–
CC(=O)O[C@H]1CC[C@@]2(C)C(=CC[C@H]3C4=CC=C(C(C)=O)[C@@]4(C)CCC32)C1 (stereo not given in full)	–	–	inactive
COc1ccc(/C=c2/sc3n(c2=O)NC(c2ccc(Cl)cc2)NN=3)cc1 (stereo not given)	–	–	inactive
COc1cc(Oc2nc3ccc(C(F)(F)F)cc3nc2-c2ccccc2)cc(OC)c1OC	> 93.3	57.5 µM	–
Cc1c(C(=O)CSc2nc3ccc([N+](=O)[O-])cc3[nH]2)c(=O)n(-c2ccccc2)n1C	> 17	> 17 µM	–
COc1cc(C)cc2c(-c3c(O)cc(O)c4c3CC(C)N[C@H]4C)cc(-c3cc(-c4c(O)cc(O)c5c4CC(C)N[C@H]5C)c4cc(C)cc(OC)c4c3O)c(O)c12 (stereo not given in full)	38	166 µM	–
O=C(NCCCNCCNC(=O)c1cc(-c2ccccc2)nc2ccccc12)c1cc(-c2ccccc2)nc2ccccc12	> 20	3.02 µM	–
CCn1c2ccccc2c2c3ncc4cccn4c3ccc21	> 200	135 µM	–
Oc1cc(Br)cc2cc(Br)cnc12	–	–	inactive
CC1(C)SCC(COC(=O)c2ccccc2)S1 (stereo not given)	> 200	> 200 µM	–
CCOC(=O)c1oc2c(OC)cc(Cl)c3c2c1CCC3	–	–	inactive
CC12Nc3c(Cl)cc(Cl)cc3N1C(=O)c1ccccc12 (stereo not given)	> 200	87.1 µM	–
Cc1c([N+](=O)[O-])oc2c1C(=O)N([N+](=O)[O-])CCC2	> 89.1	> 89.1 µM	–
COC(=O)C1(C(=O)OC)N=C(C)OC1c1ccccn1 (stereo not given)	> 200	> 200 µM	–
COc1ccc2c(c1)c1c(n2CCN2CCCCC2)-c2cccc(OC)c2CC1	> 200	11.2 µM	–
Cc1[nH]c(=O)n2c(C)nnc2c1C(=O)O	–	–	inactive

Structure (SMILES)	EC50 [µM]	IC50	outcome
COc1ccc2c(=O)c(C)c(-c3ccccc3)oc2c1CN(C)C	–	–	inactive
CC12CCCC(O)C1CCC1=CC3(CCC12)SCCS3 (stereo not given)	> 12	> 12 µM	–
CCC[CH2][Sn]([CH2]CCC)([O]C(=O)c1cccnc1SC)[O]C(=O)c1cccnc1SC	> 12.6	9.12 µM	–
COCCCCCCCCCCC(=O)O	> 200	> 200 µM	–
Cc1c2c(C#N)nccc2c(C)c2c1c1ccccc1n2Cc1ccccc1	–	–	inactive
O=C1C2(Cl)C3(Cl)C4(OCCO4)C4(Cl)C2(Cl)C2(Cl)C1(Cl)C3(Cl)C42Cl (stereo not given)	> 200	28.8 µM	–
CC(=O)O/C=C1/C[C@H]2[C@@H]3CCC4CC(C(C)=O)CC[C@]4(C)[C@H]3CC[C@]2(C)C1=O (stereo not given in full)	> 200	107 µM	–
NCCCNCCCCN(CCCN)/[N+]([O-])=N\O	> 6030	145 µM	–
COc1ccc2c(c1)C(C)(C)Oc1cc3oc(C(=O)O)cc(=O)c3cc1-2	> 355	> 355 µM	–
C[As+](C)(C)CC1OC(OCC(O)COS(=O)(=O)[O-])C(O)C1O (stereo not given)	–	–	inactive
NC(CSS(=O)(=O)O)=NCCc1c[nH]c(=S)[nH]1	> 200	34.7 µM	–
CC(C)N(O)C(=N)c1ccccc1	–	–	inactive
N#CC1=C(c2ccccc2)C(=C2Nc3ccccc3N2)C2S/C(=C\c3ccccc3)C(=O)N2C1=N (stereo not given)	> 2.19	> 2.19 µM	–
Cc1c(C)c(C)n(C2OC(CO)C(O)C(O)C2O)c(=S)c1C#N (stereo not given)	> 100	> 100 µM	–
[Ni+2].[O-]/C(=N\N=C\c1ccccn1)c1ccccc1O.[O-]/C(=N\N=C\c1ccccn1)c1ccccc1O	> 200	6.17 µM	–
CC(C)(C)c1cc(C(O)(C(F)(F)F)C(F)(F)F)c2c(c1)C(C(F)(F)F)(C(F)(F)F)OC(c1ccccc1)(C(C)(C)C)N2 (stereo not given)	–	–	inactive
CC(C)(C)COC(=O)NS(=O)(=O)Nc1ccccc1	> 200	> 200 µM	–
CCN(CC)c1ccc(N=Nc2ccc(-c3nc4ccc[n+](C)c4s3)cc2)cc1	> 7.08	4.79 µM	–
COc1ccc(-c2nnc(-c3ccncc3)o2)cc1	> 200	> 200 µM	–
O=c1oc2c(-c3ccccc3)n[nH]c(=O)c2c2c1CCCC2	> 170	> 170 µM	–
CN(C)c1ccc2c(c1)-c1cc(N(C)C)ccc1C2=CC=C1C(=O)NC(=S)NC1=O	> 12.3	> 12.3 µM	–
CN[C@@H](C)[C@H](NC)c1ccccc1	–	–	inactive

Structure (SMILES)	EC50 [µM]	IC50	outcome
COc1c(C)c(C/C=C(\C)CCCC(C)CCCC(C)CCCC(C)C)c(OC)c2ccccc12 (stereo not given)	> 200	> 200 µM	–
COc1ccc(/C=C2\SC(c3ccc(OC)cc3)N(NC(=O)Cc3ccccc3)C2=O)cc1 (stereo not given)	> 15.5	> 15.5 µM	–
COC(=O)[C@@H]1[C@H]2CC[C@]3(C)[C@@H](OC(C)=O)CC[C@H]3[C@@H]2CC[C@H]1C(C)=O	> 174	> 174 µM	–
Cc1ccc(-c2nnc3s/c(=C\c4ccc(N(C)C)cc4)c(=O)n23)cc1	> 27.5	16.2 µM	–
OC12CCC3(O)c4ccccc4C3C1c1ccccc12 (stereo not given)	> 200	> 200 µM	–
CNC(=O)c1n[nH]nc1Sc1c([N+](=O)[O-])ncn1C	–	–	inactive
S=C1C(=Nc2ccccc2)N(c2ccccc2)/C(=N\c2cccc[n+]2Cc2ccccc2)N1c1ccccc1	15.5	27.5 µM	–
COc1c2occc2c(Cl)c2ccc(=O)oc12	> 70.8	43.7 µM	–
c1c[nH]c(Cc2ncc(Cc3cnc[nH]3)[nH]2)n1	–	–	inactive
COC(=O)/C(C#N)=C\NC(=S)C(N)=S	> 200	11.2 µM	–
N.N.N.N.O=C([O-])O.O=C([O-])[O-].[Co+3]	–	–	inactive
NC(CCCCCP(=O)(O)O)C(=O)O (stereo not given)	> 200	> 200 µM	–
CC1(C)CNC[C@@](C)(O)C(=O)[N-]C(C)(C)CNC[C@@](C)(O)C(=O)[N-]1.[Ni+2]	> 200	72.4 µM	–
N/N=c1\c2ccccc2c2ccc3c4ccccc4/c(=N\N)c3c12	> 11.5	> 11.5 µM	–
CC(=O)Nc1ccc(-c2nnc(SCC(=O)Nc3cccc([N+](=O)[O-])c3)o2)cc1	> 45.7	7.76 µM	–
COc1ccc(Cl)cc1NC(=O)Nc1cc(C)ccn1	> 200	> 200 µM	–
O=C(Nc1ccc(Cl)cc1Cl)C(=O)Nn1c(=S)[nH]c2ccccc2c1=O	–	–	inactive
CSc1nc(C)cc(=O)n1C1OC(COC(C)=O)C(OC(C)=O)C(OC(C)=O)C1OC(C)=O (stereo not given)	> 200	> 200 µM	–
Cc1ccc(N=Nc2c(S(=O)(=O)O)cc3cc(NC(=O)Nc4ccc5c(O)c(N=Nc6ccc7cc(S(=O)(=O)O)ccc7c6)c(S(=O)(=O)O)cc5c4)ccc3c2O)cc1	–	–	active
COC1=CC(C)C2C[C@H]3O[C@H](O)C[C@H]4C(C)C(=O)C(O)C([C@@]2(C)C1=O)[C@@]34C (stereo not given in full)	–	–	inactive
COC(=O)c1onc(C2OC(C)(C)OC2C(O)COC(c2ccccc2)(c2ccccc2)c2ccccc2)c1C(=O)OC (stereo not given)	> 200	15.1 µM	–
CCc1cc(Cc2cc(CC)c(NC(=O)C3=CC(=O)CC(c4ccc(OC)cc4)O3)c(CC)c2Cl)c(Cl)c(CC)c1NC(=O)C1=CC(=O)CC(c2ccc(OC)cc2)O1 (stereo not given)	–	–	inactive

Structure (SMILES)	EC50 [µM]	IC50	outcome
Cc1ccc(NC(=O)SCCC(=O)O)cc1NC(=O)SCCC(=O)O	–	–	inactive
CC(C)[C@H]1CO[C@@H]2CCC(=O)N12	> 1050	> 1050 µM	–
O=C(c1ccco1)[N+]1=Cc2[nH]c3ccccc3c2CC1	> 170	97.7 µM	–
CN(C)c1cc[n+](-c2nc(/N=C(\[O-])C(F)(F)F)nc3c2ncn3C2CC(O)C(CO)O2)cc1 (stereo not given)	> 200	> 200 µM	–
O=C(O)CCNS(=O)(=O)c1ccc(NC(=O)c2ccccc2)cc1	–	–	inactive
O=S(=O)([N-]c1nc2ccccc2nc1-[n+]1ccccc1)c1ccccc1	> 100	> 100 µM	–
Cc1cc(C)c([O-])c(-[n+]2c(-c3ccccc3)cc(-c3ccccc3)cc2-c2ccccc2)c1	> 17	2.88 µM	–
COc1ccc2cc3[n+](cc2c1OC)CCc1cc(O)c(O)cc1-3	–	–	inactive
COC(=O)C(CCCCNC(=O)CNC(=O)OCc1ccccc1)NC(=O)C(CCCCNC(=O)CNC(=O)OCc1ccccc1)NC(=O)OCc1ccccc1 (stereo not given)	> 100	66.1 µM	–
Cc1ccc(S(=O)(=O)NNC(=O)c2cc(C(=O)NNS(=O)(=O)c3ccc(C)cc3)c(C)nc2C)cc1	> 200	162 µM	–
O=C1OC(=O)c2c(O)cc(O)c(=O)cc21	> 331	209 µM	–
Nc1nc(Cl)c(N)c(NCC2(CO)CCCC2)n1	> 200	102 µM	–
O=c1[nH]c(NCc2cccnc2)nc2nc[nH]c12	> 200	> 200 µM	–
COc1ccc(C(OCC2OC(n3cnc4c(=O)n(Cc5ccccc5[N+](=O)[O-])nnc43)C(O)C2O)(c2ccccc2)c2ccc(OC)cc2)cc1 (stereo not given)	–	–	inactive
O=C(OC[C@]12OC1C=C[C@H](OC(=O)c1ccccc1)C2O)c1ccccc1 (stereo not given in full)	> 24.5	23.4 µM	–
COc1ccc2nc3cc(Cl)ccc3c(Nc3ccccc3-c3ccccc3Nc3c4ccc(Cl)cc4nc4ccc(OC)cc34)c2c1	> 4.07	> 4.07 µM	–
COC(=O)CCC(=O)NC1C2CC3CC(C2)CC1C3 (stereo not given)	> 135	> 135 µM	–
CCOC(=O)C(C(=O)c1ccccc1C(=O)OC)=P(c1ccccc1)(c1ccccc1)c1ccccc1	22.9	52.5 µM	–
N#CC(C#N)=CN1CCCC1	> 200	> 200 µM	–
CCOP1(OCC)(SSC)OC(=O)C(C)S1 (stereo not given)	> 813	617 µM	–

Source: PubChem BioAssay AID179 (DTP/NCI, 2004)
